In patent US6706663B2, “Herbicidal 3-heterocyclic substituted benzisothiazole and benzisoxazole compounds” (Wyeth, priority 2000, dated 2004):

Tests used:
[1] = test system: GLXMAW (Soybean, Williams); test: Preemergence herbicidal evaluation; assay type: in vivo, Glycine max, (L.) Merr. cv Williams; settings: preemergence, rated 4-5 weeks after treatment
ZEAMX (Corn, Field) = test: Postemergence herbicidal evaluation; assay type: in vivo, Zea mays, L.
Outline: (§1)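 Seedlings grown about two weeks in flats, sprayed, then kept under standard greenhouse care. Rated visually 4–5 weeks after treatment on a 0–9 scale (stand, vigour, malformation, size, chlorosis, overall appearance) relative to untreated control; repeat tests averaged.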

ORYSAT (Rice, Tebonnet) [2] = test: Preemergence herbicidal evaluation; assay type: in vivo, Oryza sativa, (L.) Tebonnet; settings: preemergence, rated 4-5 weeks after treatment
[3] = test system: ECHORC (Echinochloa oryzoides); test: Flooded paddy, preemergence weed control; assay type: in vivo, Echinochloa oryzoides (Ard.) Fritsch.; settings: rated 3-4 weeks after treatment, 0-9 rating scale
Outline: (§2)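 Under paddy conditions, seeds or vegetative propagules go into the top 0.5 cm of silt loam; the soil is then flooded to 1.5–3 cm and kept so. Treated pots stay in a greenhouse; response is rated 0-9 visually versus control.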

[4] = test system: TRZAWR (Wheat, Winter, cv Riband); test: Preemergence herbicidal evaluation; assay type: in vivo, Triticum aestivum; settings: preemergence, rated 4-5 weeks after treatment
Outline: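 Applied before emergence as an aqueous acetone spray over seeded soil. Read-out: 0–9 visual rating covering plant stand, vigor, size, chlorosis, malformation and overall appearance compared with control, taken 4–5 weeks after spraying.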

[5] = test system: CASOB (Cassia obtusifolia); test: Postemergence herbicidal evaluation; assay type: in vivo, L.
Outline: as §1

[6] = test system: AMBEL (Ambrosia artemisifolia); test: Postemergence herbicidal evaluation; assay type: in vivo, L.
Outline: as §1

[7] = test system: CHEAL (Chenopodium album); test: Postemergence herbicidal evaluation; assay type: in vivo, L.
Outline: as §1

[8] = test system: SAGPY (Sagittaria pygmaea); test: Flooded paddy, preemergence weed control; assay type: in vivo, L.; settings: rated 3-4 weeks after treatment, 0-9 rating scale
Outline: as §2

CYPIR (Cyperus iria) = test: Flooded paddy, preemergence weed control; assay type: in vivo; settings: rated 3-4 weeks after treatment, 0-9 rating scale
Outline: as §2

ORYSAT (Rice, Tebonnet) [9] = test: Postemergence herbicidal evaluation; assay type: in vivo, Oryza sativa, (L.) Tebonnet
Outline: as §1

[10] = test system: IPOHE (Ipomoea hederacea); test: Preemergence herbicidal evaluation; assay type: in vivo, (L.) Jacq.; settings: preemergence, rated 4-5 weeks after treatment
[11] = test system: ECHCG (Echinochloa crus-galli); test: Postemergence herbicidal evaluation; assay type: in vivo, (L.) Beau
Outline: as §1

Cn1c(C(F)(F)F)cc(=O)n(-c2ccc3snc(C4SCCS4)c3c2)c1=O [Compound 24, 3-[3-(1,3-dithiolan-2-yl)-1,2-benzisothiazol-5-yl]-1-methyl-6-(trifluoromethyl)uracil]
GLXMAW preemergence herbicidal rating ([1]; Rate 0.0620 kg/ha): 2.0 | GLXMAW preemergence herbicidal rating ([1]; Rate 0.1250 kg/ha): 2.5 | GLXMAW preemergence herbicidal rating ([1]; Rate 0.2500 kg/ha): 4.0 | Postemergence herbicidal rating, ZEAMX (ZEAMX (Corn, Field); rate 0.0320 kg/ha): 5.5 | Postemergence herbicidal rating, ZEAMX (ZEAMX (Corn, Field); rate 0.0620 kg/ha): 6.0 | ORYSAT preemergence herbicidal rating (ORYSAT (Rice, Tebonnet) [2]; Rate 0.0620 kg/ha): 0.0 | ORYSAT preemergence herbicidal rating (ORYSAT (Rice, Tebonnet) [2]; Rate 0.1250 kg/ha): 3.0 | ORYSAT preemergence herbicidal rating (ORYSAT (Rice, Tebonnet) [2]; Rate 0.2500 kg/ha): 6.0 | herbicidal rating, ECHORC ([3]; rate 0.0320 kg/ha): 5.0 | herbicidal rating, ECHORC ([3]; rate 0.1250 kg/ha): 7.0 | TRZAWR preemergence herbicidal rating ([4]; Rate 0.0620 kg/ha): 0.0 | TRZAWR preemergence herbicidal rating ([4]; Rate 0.1250 kg/ha): 2.0 | Postemergence herbicidal rating, CASOB ([5]; rate 0.0320 kg/ha): 3.0 | Postemergence herbicidal rating, CASOB ([5]; rate 0.0620 kg/ha): 9.0 | Postemergence herbicidal rating, AMBEL ([6]; rate 0.0320 kg/ha): 9.0 | Postemergence herbicidal rating, AMBEL ([6]; rate 0.0620 kg/ha): 9.0 | Postemergence herbicidal rating, CHEAL ([7]; rate 0.0320 kg/ha): 9.0 | Postemergence herbicidal rating, CHEAL ([7]; rate 0.0620 kg/ha): 9.0 | herbicidal rating, SAGPY ([8]; rate 0.0320 kg/ha): 0.0 | herbicidal rating, SAGPY ([8]; rate 0.1250 kg/ha): 5.0 | herbicidal rating, CYPIR (CYPIR (Cyperus iria); rate 0.0320 kg/ha): 0.0 | herbicidal rating, CYPIR (CYPIR (Cyperus iria); rate 0.1250 kg/ha): 5.0 | Postemergence herbicidal rating, ORYSAT (ORYSAT (Rice, Tebonnet) [9]; rate 0.0320 kg/ha): 2.0 | Postemergence herbicidal rating, ORYSAT (ORYSAT (Rice, Tebonnet) [9]; rate 0.0620 kg/ha): 2.5 | IPOHE preemergence herbicidal rating ([10]; Rate 0.0620 kg/ha): 2.0 | IPOHE preemergence herbicidal rating ([10]; Rate 0.1250 kg/ha): 6.5 | IPOHE preemergence herbicidal rating ([10]; Rate 0.2500 kg/ha): 7.0 | Postemergence herbicidal rating, ECHCG ([11]; rate 0.0320 kg/ha): 0.0 | Postemergence herbicidal rating, ECHCG ([11]; rate 0.0620 kg/ha): 2.0

Cn1c(C(F)(F)F)cc(=O)n(-c2ccc3snc(C4OCCCO4)c3c2)c1=O [Compound 28, 3-(3-m-dioxan-2-yl-1,2-benzisothiazol-5-yl)-1-methyl-6-(trifluoromethyl)uracil]
GLXMAW preemergence herbicidal rating ([1]; Rate 0.0620 kg/ha): 8.0 | GLXMAW preemergence herbicidal rating ([1]; Rate 0.1250 kg/ha): 9.0 | GLXMAW preemergence herbicidal rating ([1]; Rate 0.2500 kg/ha): 9.0 | Postemergence herbicidal rating, ZEAMX (ZEAMX (Corn, Field); rate 0.0320 kg/ha): 5.8 | Postemergence herbicidal rating, ZEAMX (ZEAMX (Corn, Field); rate 0.0620 kg/ha): 6.3 | ORYSAT preemergence herbicidal rating (ORYSAT (Rice, Tebonnet) [2]; Rate 0.0620 kg/ha): 9.0 | ORYSAT preemergence herbicidal rating (ORYSAT (Rice, Tebonnet) [2]; Rate 0.1250 kg/ha): 9.0 | ORYSAT preemergence herbicidal rating (ORYSAT (Rice, Tebonnet) [2]; Rate 0.2500 kg/ha): 9.0 | herbicidal rating, ECHORC ([3]; rate 0.0080 kg/ha): 5.0 | herbicidal rating, ECHORC ([3]; rate 0.0320 kg/ha): 8.5 | herbicidal rating, ECHORC ([3]; rate 0.1250 kg/ha): 9.0 | TRZAWR preemergence herbicidal rating ([4]; Rate 0.0620 kg/ha): 9.0 | TRZAWR preemergence herbicidal rating ([4]; Rate 0.1250 kg/ha): 9.0 | TRZAWR preemergence herbicidal rating ([4]; Rate 0.2500 kg/ha): 9.0 | Postemergence herbicidal rating, CASOB ([5]; rate 0.0320 kg/ha): 8.0 | Postemergence herbicidal rating, CASOB ([5]; rate 0.0620 kg/ha): 9.0 | Postemergence herbicidal rating, AMBEL ([6]; rate 0.0320 kg/ha): 9.0 | Postemergence herbicidal rating, AMBEL ([6]; rate 0.0620 kg/ha): 9.0 | Postemergence herbicidal rating, CHEAL ([7]; rate 0.0320 kg/ha): 9.0 | Postemergence herbicidal rating, CHEAL ([7]; rate 0.0620 kg/ha): 9.0 | herbicidal rating, SAGPY ([8]; rate 0.0080 kg/ha): 0.0 | herbicidal rating, SAGPY ([8]; rate 0.0320 kg/ha): 8.0 | herbicidal rating, SAGPY ([8]; rate 0.1250 kg/ha): 9.0 | herbicidal rating, CYPIR (CYPIR (Cyperus iria); rate 0.0080 kg/ha): 8.0 | herbicidal rating, CYPIR (CYPIR (Cyperus iria); rate 0.0320 kg/ha): 9.0 | herbicidal rating, CYPIR (CYPIR (Cyperus iria); rate 0.1250 kg/ha): 9.0 | Postemergence herbicidal rating, ORYSAT (ORYSAT (Rice, Tebonnet) [9]; rate 0.0320 kg/ha): 5.3 | Postemergence herbicidal rating, ORYSAT (ORYSAT (Rice, Tebonnet) [9]; rate 0.0620 kg/ha): 6.5 | IPOHE preemergence herbicidal rating ([10]; Rate 0.0620 kg/ha): 9.0 | IPOHE preemergence herbicidal rating ([10]; Rate 0.1250 kg/ha): 9.0 | IPOHE preemergence herbicidal rating ([10]; Rate 0.2500 kg/ha): 9.0 | Postemergence herbicidal rating, ECHCG ([11]; rate 0.0320 kg/ha): 4.3 | Postemergence herbicidal rating, ECHCG ([11]; rate 0.0620 kg/ha): 8.5
